What was measured:
New Delhi MBL-1 (NDM-1) [1] = molecular target: T1, New Delhi MBL-1 (NDM-1) (Klebsiella pneumoniae, UniProt C7C422); assay: time-dependent covalent fluorescent labelling by SDS-PAGE; blocked by ZnSO4; type: binding
T1 construct: gene blaNDM-1; His6-SUMO tag removed

New Delhi MBL-1 (NDM-1) [2] = molecular target: T1, New Delhi MBL-1 (NDM-1); assay: steady-state hydrolysis by purified NDM-1, absorbance at […] nm; type: biochemical

T1 sequence (C7C422 29-270 limits assumed): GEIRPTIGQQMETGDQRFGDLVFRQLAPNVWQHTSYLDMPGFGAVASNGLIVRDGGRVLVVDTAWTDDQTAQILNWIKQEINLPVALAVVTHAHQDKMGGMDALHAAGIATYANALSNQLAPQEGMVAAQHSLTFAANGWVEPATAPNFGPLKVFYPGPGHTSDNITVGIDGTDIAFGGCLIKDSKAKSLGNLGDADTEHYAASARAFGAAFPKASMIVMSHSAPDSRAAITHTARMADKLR

| SMILES | time-dependent covalent fluorescent labelling by SDS-PAGE; blocked by ZnSO4 (New Delhi MBL-1 (NDM-1) [1]) | steady-state hydrolysis by purified NDM-1, absorbance at 485 nm (New Delhi MBL-1 (NDM-1) [2]) |
| --- | --- | --- |
| CN(C)c1cccc2c(S(=O)(=O)NCCN3C(=O)C=CC3=O)cccc12 [DM, N-[2-(dansylamino)ethyl]maleimide] | NDM-1 showed time-dependent fluorescent labeling by DM in response to AMA (Fig. 4B). |  |
| O=C(Cc1cccs1)N[C@@H]1C(=O)N2C(C(=O)O)=C(/C=C/c3ccc([N+](=O)[O-])cc3[N+](=O)[O-])CS[C@H]12 [nitrocefin] |  | we determined the steady-state kinetics of NDM-1–catalyzed hydrolysis of nitrocefin over fixed time intervals |

Source: paper PMC8319579, “Aspergillomarasmine A inhibits metallo-β-lactamases by selectively sequestering Zn^2+” (The Journal of Biological Chemistry, 2021)
